For 20 compounds, IC50 results are on record in patent publication US20170369444A1, “INHIBITORS OF HISTONE DEMETHYLASES” (Gilead Sciences, Inc., priority 2014, published 2017).

The structures appear in SMILES notation.

As usually defined, the IC50 is the concentration needed to halve the response being measured.

Common to all, as to assay type: biochemical
In one assay the target is T1, KDM5B (PLU-1) (Homo sapiens, UniProt Q9UGL1).
T1 construct: 1-809; host or cells: E. coli
T1 sequence (Q9UGL1 1-809): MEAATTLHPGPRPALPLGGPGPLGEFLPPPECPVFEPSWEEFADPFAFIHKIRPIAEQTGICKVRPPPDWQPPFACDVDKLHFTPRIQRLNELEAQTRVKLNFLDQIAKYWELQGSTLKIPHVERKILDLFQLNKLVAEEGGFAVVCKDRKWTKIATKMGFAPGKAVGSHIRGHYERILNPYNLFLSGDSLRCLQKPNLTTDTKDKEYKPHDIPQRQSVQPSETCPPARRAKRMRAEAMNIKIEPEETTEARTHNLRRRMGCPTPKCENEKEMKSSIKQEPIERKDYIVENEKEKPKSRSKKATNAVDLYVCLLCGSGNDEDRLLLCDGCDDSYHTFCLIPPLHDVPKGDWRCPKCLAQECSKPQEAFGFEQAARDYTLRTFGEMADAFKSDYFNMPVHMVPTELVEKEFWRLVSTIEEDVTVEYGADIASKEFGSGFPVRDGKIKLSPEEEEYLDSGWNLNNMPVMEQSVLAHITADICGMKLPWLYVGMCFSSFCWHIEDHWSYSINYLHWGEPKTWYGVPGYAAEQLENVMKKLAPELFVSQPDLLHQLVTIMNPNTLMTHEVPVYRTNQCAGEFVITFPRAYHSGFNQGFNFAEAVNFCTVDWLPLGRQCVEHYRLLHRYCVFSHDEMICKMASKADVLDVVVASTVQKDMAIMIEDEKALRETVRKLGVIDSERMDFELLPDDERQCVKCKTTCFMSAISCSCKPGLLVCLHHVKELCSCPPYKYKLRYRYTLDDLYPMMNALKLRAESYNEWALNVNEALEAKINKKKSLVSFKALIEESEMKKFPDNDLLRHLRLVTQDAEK
In words: Histone lysine demethylase AlphaLISA assay, KDM5B. Particulars: in vitro enzyme, read-out: KDM5B IC50 (HDME Inhibition). As to the method:
(§1) Histone lysine demethylase AlphaLISA assays are performed to determine IC50 values. […] Assays are performed analogously to the protocol described by PerkinElmer (Roy et al. PerkinElmer Technical Note: AlphaLISA #12, April 2011).
(§2) Assays are performed analogously to the protocol described by PerkinElmer (Roy et al. PerkinElmer Technical Note: AlphaLISA #12, April 2011).
(§3) Enzymes (final assay concentration 0.1-2.5 nM) are dissolved in enzyme buffer and incubated for 10 min before 5 μL is added to 5 μL 3% DMSO solutions of compounds in enzyme buffer, incubated for another 10 minutes, before 5 μL substrate solution is added and the reaction mixture is incubated at room temperature. 10 μL acceptor beads, suspended Epigenetic Buffer (Perkin Elmer AL008) from stock, are added and the suspension is incubated in the dark at room temperature, before 10 μL suspension of streptavidin donor beads (Perkin Elmer 6760002) in Epigenetic Buffer is added. After incubation at room temperature in the dark the plates are read.
(§4) Substrate solution: Substrate (final assay concentration 50-200 nM), 50 mM Hepes (pH 7.4-8.0), 0.003% Tween-20, 0.1% BS, 25 μM L-Asc, 10 μM α-KG. Enzyme Buffer: 50 mM Hepes (pH 7.4-8.0), 0.003% Tween-20, 0.1% BSA; 5 μM (NH4)2Fe(SO4)2

A further assay has as its target PHF8 (KDM7) (Homo sapiens, UniProt Q9UPP1). In words: Histone lysine demethylase AlphaLISA assay, PHF8. Particulars: in vitro enzyme, read-out: PHF8 IC50 (HDME Inhibition). As to the method:
as §1, §2, §3, §4

The target of another assay is T2, KDM6A (UTX) (Homo sapiens, UniProt O15550).
T2 construct: 919-1401; host or cells: E. coli
The experiment in a line: Histone lysine demethylase AlphaLISA assay, KDM6A. Particulars: in vitro enzyme, read-out: KDM6A IC50 (HDME Inhibition). The procedure:
as §1, §2, §3, §4
In general terms: Alpha assays give light when donor and acceptor beads are brought close together.

The next assay has as its target T3, KDM2B (FBXL10) (Homo sapiens, UniProt Q8NHM5).
T3 construct: 1-650; purchased BPS Bioscience, US; host or cells: Bac (baculovirus/insect cells)
T3 sequence (Q8NHM5 1-650): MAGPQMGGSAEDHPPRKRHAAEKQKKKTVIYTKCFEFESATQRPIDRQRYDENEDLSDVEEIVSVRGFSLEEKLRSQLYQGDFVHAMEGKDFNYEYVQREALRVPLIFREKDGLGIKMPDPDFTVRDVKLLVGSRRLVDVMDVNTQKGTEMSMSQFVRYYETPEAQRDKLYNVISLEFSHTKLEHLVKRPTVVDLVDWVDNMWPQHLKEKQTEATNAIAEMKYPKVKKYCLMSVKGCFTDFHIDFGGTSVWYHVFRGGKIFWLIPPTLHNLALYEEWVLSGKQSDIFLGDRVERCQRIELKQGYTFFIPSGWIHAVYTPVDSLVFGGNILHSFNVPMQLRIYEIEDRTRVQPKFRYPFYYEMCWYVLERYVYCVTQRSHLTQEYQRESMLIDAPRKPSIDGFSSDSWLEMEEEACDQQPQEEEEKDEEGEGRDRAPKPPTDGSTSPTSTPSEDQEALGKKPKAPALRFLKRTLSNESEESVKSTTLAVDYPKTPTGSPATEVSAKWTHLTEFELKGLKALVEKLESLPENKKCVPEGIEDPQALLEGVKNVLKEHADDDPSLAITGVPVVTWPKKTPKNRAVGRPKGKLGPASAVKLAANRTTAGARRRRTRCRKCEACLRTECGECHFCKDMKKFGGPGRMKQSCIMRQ
The experiment in a line: Histone lysine demethylase AlphaLISA assay, KDM2B. The following applies: in vitro enzyme, read-out: KDM2B IC50 (HDME Inhibition). As to the method:
as §1, §2, §3, §4

T2 sequence (O15550 919-1401): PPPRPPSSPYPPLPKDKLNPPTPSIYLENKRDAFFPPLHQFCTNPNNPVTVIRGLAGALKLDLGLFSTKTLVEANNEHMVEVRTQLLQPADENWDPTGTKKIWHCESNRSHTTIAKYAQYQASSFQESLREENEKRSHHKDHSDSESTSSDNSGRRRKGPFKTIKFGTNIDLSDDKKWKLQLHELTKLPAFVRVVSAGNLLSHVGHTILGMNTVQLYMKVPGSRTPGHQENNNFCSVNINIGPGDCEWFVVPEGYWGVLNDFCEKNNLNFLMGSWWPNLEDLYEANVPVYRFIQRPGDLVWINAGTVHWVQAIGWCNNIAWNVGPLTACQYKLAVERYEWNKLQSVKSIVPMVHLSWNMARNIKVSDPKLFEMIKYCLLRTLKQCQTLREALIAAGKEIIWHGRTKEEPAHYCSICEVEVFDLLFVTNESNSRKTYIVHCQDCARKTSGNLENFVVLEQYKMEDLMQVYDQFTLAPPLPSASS
Sequence of PHF8 (KDM7) (Q9UPP1 whole entry): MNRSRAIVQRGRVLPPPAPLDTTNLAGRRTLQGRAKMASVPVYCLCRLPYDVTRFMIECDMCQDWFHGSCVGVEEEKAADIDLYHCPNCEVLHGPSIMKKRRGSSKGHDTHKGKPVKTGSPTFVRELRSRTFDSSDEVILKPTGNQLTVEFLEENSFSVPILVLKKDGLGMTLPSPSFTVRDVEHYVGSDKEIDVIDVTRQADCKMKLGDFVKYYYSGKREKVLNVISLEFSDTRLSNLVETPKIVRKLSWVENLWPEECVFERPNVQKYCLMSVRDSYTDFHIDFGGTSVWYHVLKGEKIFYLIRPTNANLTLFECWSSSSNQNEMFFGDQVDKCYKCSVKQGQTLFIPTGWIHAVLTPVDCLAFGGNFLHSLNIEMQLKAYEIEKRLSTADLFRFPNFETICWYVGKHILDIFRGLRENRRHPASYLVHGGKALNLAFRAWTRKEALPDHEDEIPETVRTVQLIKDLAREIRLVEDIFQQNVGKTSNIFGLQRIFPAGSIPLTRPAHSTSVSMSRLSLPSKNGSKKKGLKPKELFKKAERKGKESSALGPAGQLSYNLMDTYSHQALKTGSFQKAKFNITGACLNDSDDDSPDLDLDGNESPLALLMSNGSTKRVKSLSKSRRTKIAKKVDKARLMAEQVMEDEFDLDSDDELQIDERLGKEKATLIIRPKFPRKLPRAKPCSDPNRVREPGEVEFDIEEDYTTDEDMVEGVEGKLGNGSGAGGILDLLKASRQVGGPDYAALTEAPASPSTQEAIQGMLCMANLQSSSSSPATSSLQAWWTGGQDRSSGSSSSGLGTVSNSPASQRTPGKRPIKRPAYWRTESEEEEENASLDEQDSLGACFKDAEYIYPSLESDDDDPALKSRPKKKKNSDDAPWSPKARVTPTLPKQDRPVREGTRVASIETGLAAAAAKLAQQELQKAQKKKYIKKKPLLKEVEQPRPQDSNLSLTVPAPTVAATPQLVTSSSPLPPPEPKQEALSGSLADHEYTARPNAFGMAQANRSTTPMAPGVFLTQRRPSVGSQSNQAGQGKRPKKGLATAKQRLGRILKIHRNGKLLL

For `O=C(O)c1ccnc(CNCc2cccnc2)c1` [Compound 84, 2-{[(pyridin-3-ylmethyl)amino]methyl}pyridine-4-carboxylic acid], the IC50 at KDM5B (PLU-1) was under 250 nM; on PHF8 (KDM7), under 250 nM; at KDM6A (UTX) it was over 2500 nM.

As to `C=CCN(CC=C)C(=O)[C@H](CCCCNC(=O)NC(C)(C)C)NCc1cc(C(=O)O)ccn1` [Compound 9, 2-({[(1S)-1-[bis(prop-2-en-1-yl)carbamoyl]-5-[(tert-butylcarbamoyl)amino]pentyl]amino}methyl) pyridine-4-carboxylic acid], the 50% inhibitory concentration (IC50) at KDM5B (PLU-1) was 250 to 2500 nM; at PHF8 (KDM7), over 2500 nM; on KDM6A (UTX), over 2500 nM.

`CCNC(=O)C[C@@H]1CCN(Cc2cc(C(=O)O)ccn2)C1` [Compound 77, 2-{[(3S)-3-[(ethylcarbamoyl)methyl]pyrrolidin-1-yl]methyl}pyridine-4-carboxylic acid]: the IC50 is 250 to 2500 nM on KDM5B (PLU-1), 250 to 2500 nM at PHF8 (KDM7) and over 2500 nM at KDM6A (UTX).

For the compound `O=C(O)c1ccnc(CN2CC[C@H]2CO)c1` [Compound 64, 2-{[(2S)-2-(hydroxymethyl)azetidin-1-yl]methyl}pyridine-4-carboxylic acid], the 50% inhibitory concentration (IC50) at KDM5B (PLU-1) is 250 to 2500 nM; on PHF8 (KDM7) it was over 2500 nM; at KDM6A (UTX), over 2500 nM.

As for `CCN(CC)C(=O)CCN(CCO)Cc1cc(C(=O)O)ccn1` [Compound 44, 2-({[2-(diethylcarbamoyl)ethyl](2-hydroxyethyl)amino}methyl)pyridine-4-carboxylic acid], the half-maximal inhibitory concentration (IC50) was under 250 nM on KDM5B (PLU-1) and 250 to 2500 nM on KDM2B (FBXL10).

For `CC[C@H]1CCN(Cc2cc(C(=O)O)ccn2)[C@@H]1CO` [Compound 65, 2-{[(2S,3S)-3-ethyl-2-(hydroxymethyl)pyrrolidin-1-yl]methyl}pyridine-4-carboxylic acid], the IC50 at KDM5B (PLU-1), on PHF8 (KDM7) and on KDM6A (UTX) was over 2500 nM throughout.

As for `C=CCN(CC=C)C(=O)[C@@H](CCCCNCCC)NCc1cc(C(=O)O)ccn1` [Compound 3, 2-({[(1R)-1-[bis(prop-2-en-1-yl)carbamoyl]-5-(propylamino)pentyl]amino}methyl)pyridine-4-carboxylic acid], the results for the IC50 on KDM5B (PLU-1) and on PHF8 (KDM7) were over 2500 nM and 250 to 2500 nM, respectively.

On to `CC(N[C@H](C)c1nccs1)c1cc(C(=O)O)ccn1` (stereo partly drawn) [Compound 30, 2-(1-{[(1R)-1-(1,3-thiazol-2-yl)ethyl]amino}ethyl) pyridine-4-carboxylic acid], for which the IC50 is over 2500 nM at KDM5B (PLU-1), 250 to 2500 nM at PHF8 (KDM7) and over 2500 nM at KDM6A (UTX).

Regarding `CC(N[C@@H](C)C(=O)NCc1ccccc1[N+](=O)[O-])c1cc(C(=O)O)ccn1` (stereo partly drawn) [Compound 8, 2-(1-{[(1S)-1-{[(2-nitrophenyl)methyl]carbamoyl}ethyl]amino}ethyl)pyridine-4-carboxylic acid], the IC50 at KDM5B (PLU-1), on PHF8 (KDM7) and on KDM6A (UTX) was over 2500 nM throughout.

Consider `C=CCN(CC=C)C(=O)[C@H](CCS(C)(=O)=O)NCc1cc(C(=O)O)ccn1` [Compound 29, 2-({[(1S)-1-[bis(prop-2-en-1-yl)carbamoyl]-3-methanesulfonylpropyl]amino}methyl)pyridine-4-carboxylic acid], for which the IC50 at KDM5B (PLU-1) and on PHF8 (KDM7) was over 2500 nM in each case.

Turning to `O=C(O)c1ccnc(CNCc2cn(Cc3ccc(F)cc3)c3ncccc23)c1` [Compound 83, 2-[({[1-(4-fluorobenzyl)-1H-pyrrolo[2,3-b]pyridin-3-yl]methyl}amino)methyl]pyridine-4-carboxylic acid], the half-inhibitory concentration (IC50) at KDM5B (PLU-1) is 250 to 2500 nM; at PHF8 (KDM7), under 250 nM; at KDM6A (UTX), over 2500 nM.

Consider `C=CCN(CC=C)C(=O)[C@H](CCCCN(C)C(=O)NC)NCc1cc(C(=O)O)ccn1` [Compound 20, 2-({[(1S)-1-[bis(prop-2-en-1-yl)carbamoyl]-5-[methyl(methylcarba-moyl)amino]pentyl]amino}methyl)pyridine-4-carboxylic acid], for which the half-maximal inhibitory concentration (IC50) is 250 to 2500 nM at KDM5B (PLU-1), over 2500 nM on PHF8 (KDM7) and over 2500 nM on KDM6A (UTX).

`C=CCN(CC=C)C(=O)[C@H](CCCCNC(=O)OC(C)(C)C)NCc1cc(C(=O)O)ccn1` [Compound 40, 2-({[(1S)-1-[bis(prop-2-en-1-yl)carbamoyl]-5-{[(tert-butoxy)carbonyl]amino}pentyl]amino}methyl) pyridine-4-carboxylic acid]: the concentration for half-maximal inhibition (IC50) on KDM5B (PLU-1) and on KDM2B (FBXL10) was 250 to 2500 nM each time.

On to `CCNC(=O)C1CCCN(Cc2cc(C(=O)O)ccn2)C1` (stereo not drawn) [Compound 74, 2-{[3-(ethylcarbamoyl)piper-idin-1-yl]methyl}pyridine-4-carboxylic acid], for which the figures for the concentration for half-maximal inhibition (IC50) on KDM5B (PLU-1), on PHF8 (KDM7) and on KDM6A (UTX) were 250 to 2500 nM, over 2500 nM and over 2500 nM, respectively.

Consider `CC(C)C[C@@H](COCc1ccccc1)NCc1cc(C(=O)O)ncn1` [Compound 89, 6-({[(2S)-1-(benzyloxy)-4-methylpentan-2-yl]amino}methyl) pyrimidine-4-carboxylic acid], for which the IC50 on PHF8 (KDM7) was 250 to 2500 nM; on KDM6A (UTX), over 2500 nM.

Turning to `O=C(O)c1ccnc(CN2CCC[C@H]2CO)c1` [Compound 58, 2-{[(2S)-2-(hydroxymethyl)pyrrolidin-1-yl]methyl}pyridine-4-carboxylic acid], the IC50 on KDM5B (PLU-1) was under 250 nM; at PHF8 (KDM7), 250 to 2500 nM.

Regarding `O=C(O)c1ccnc(CN2CCC[C@H]2C(=O)N2CCCCC2)c1` [Compound 55, 2-{[(2S)-2-(piperidine-1-carbonyl)pyrrolidin-1-yl]methyl}pyridine-4-carboxylic acid], the IC50 on KDM5B (PLU-1) and on PHF8 (KDM7) was over 2500 nM in each case.

On to `CCNC(=O)C1CCN(Cc2cc(C(=O)O)ccn2)C1` (stereo not drawn) [Compound 76, 2-{[3-(ethylcarbamoyl)pyrrolidin-1-yl]methyl}pyridine-4-carboxylic acid], for which the IC50 was 250 to 2500 nM on KDM5B (PLU-1), 250 to 2500 nM on PHF8 (KDM7) and over 2500 nM on KDM6A (UTX).

On to `O=C(O)c1ccnc(CN2CCC[C@@H]2CO)c1` [Compound 57, 2-{[(2R)-2-(hydroxymethyl)pyrrolidin-1-yl]methyl}pyridine-4-carboxylic acid], for which the IC50 on KDM5B (PLU-1) and on PHF8 (KDM7) was under 250 nM each time.

For `O=C(O)c1ccnc(CN2CCC[C@@H]2C(=O)N2CCCCC2)c1` [Compound 56, 2-{[(2R)-2-(piperidine-1-carbonyl)pyrrolidin-1-yl]methyl}pyridine-4-carboxylic acid], the IC50 was over 2500 nM on KDM5B (PLU-1) and 250 to 2500 nM on PHF8 (KDM7).
